# Reference: patent US6737383B1, “Herbicidal oxadiazolidines” (priority 1999, dated 2004)
# Key:
# bedstraw = test: Test B pre/postemergence bedstraw; assay type: in vivo, Galium aparine; settings: for Bedstraw plant response rating: Postemergence; for Plant response rating, Bedstraw: Preemergence
# Outline: (§1)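 Response is a visual 0-to-10 score relative to untreated plants, where 0 means no effect and 10 means complete control, taken twelve to sixteen days after application. Treatments went onto soil at planting and onto foliage of 1- to 4-leaf plants, using a surfactant-containing non-phytotoxic solvent.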
# blackgrass = test: Test B pre/postemergence blackgrass; assay type: in vivo, Alopecurus myosuroides
# Outline: as §1
# surinam grass = test: Test B pre/postemergence surinam grass; assay type: in vivo, Brachiaria decumbens
# Outline: as §1
# cocklebur = test: Test B pre/postemergence cocklebur; assay type: in vivo, Xanthium strumarium
# Outline: as §1
# corn = test: Test B pre/postemergence corn; assay type: in vivo, Zea mays
# Outline: as §1
# crabgrass = test: Test B pre/postemergence crabgrass; assay type: in vivo, Digitaria sanguinalis
# Outline: as §1
# giant foxtail = test: Test B pre/postemergence giant foxtail; assay type: in vivo, Setaria faberii
# Outline: as §1
# morningglory = test: Test B pre/postemergence morningglory; assay type: in vivo, Ipomoea hederacea
# Outline: as §1
# pigweed = test: Test B pre/postemergence pigweed; assay type: in vivo, Amaranthus retroflexus
# Outline: as §1
# soybean = test: Test B pre/postemergence soybean; assay type: in vivo, Glycine max
# Outline: as §1
# velvetleaf = test: Test B pre/postemergence velvetleaf; assay type: in vivo, Abutilon theophrasti
# Outline: as §1
# wheat = test: Test B pre/postemergence wheat; assay type: in vivo, Triticum aestivum
# Outline: as §1
# wild oat = test: Test B pre/postemergence wild oat; assay type: in vivo, Avena fatua
# Outline: as §1
# rice = test: Test B flood test rice; assay type: in vivo, Oryza sativa
# Outline: (§2)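 Flood test on plants grown to the 2-leaf stage; treated plants kept in greenhouse twelve to sixteen days, then visually rated against controls on a 0 (no effect) to 10 (complete control) scale.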
# smallflower flatsedge = test: Test B flood test smallflower flatsedge; assay type: in vivo, Cyperus difformis
# Outline: as §2
# bamyardgrass = test: Test B flood test barnyardgrass; assay type: in vivo, Echinochloa crus-galli
# Outline: as §2
# [1] = Rate 62 g/ha, scale 0 to 10, 0 is no effect, 10 is complete control
# [2] = Postemergence, Rate 62 g/ha, scale 0 to 10, 0 is no effect, 10 is complete control
# [3] = Postemergence, Rate 250 g/ha, scale 0 to 10, 0 no effect, 10 complete control
# [4] = Preemergence, Rate 62 g/ha, scale 0 to 10, 0 is no effect, 10 is complete control
# [5] = Preemergence, Rate 125 g/ha, scale 0 to 10 (0 no effect, 10 complete control)
# [6] = Preemergence, Rate 250 g/ha, scale of 0 to 10 where 0 is no effect and 10 is complete control
# [7] = Preemergence, Rate 500 g/ha, scale 0 (no effect) to 10 (complete control)
# [8] = Rate 125 g/ha, Postemergence, scale 0 to 10, 0 no effect, 10 complete control
# [9] = Rate 500 g/ha, Postemergence, 0 to 10 scale (0 no effect, 10 complete control)
# [10] = Rate 125 g/ha, Postemergence section (flood test species), scale 0 to 10, 0 no effect, 10 complete control
# [11] = Rate 500 g/ha, Postemergence section of Table B, 0 to 10 scale (0 no effect, 10 complete control)
# [12] = flood test, listed under Postemergence, Rate 250 g/ha, scale 0 to 10, 0 no effect, 10 complete control
compound,measurement,setting,value
Cc1c(Cl)cccc1-n1c(=O)on(C(=O)N(c2ccc(F)cc2)C(C)C)c1=O [Compound 21],Bedstraw plant response rating,bedstraw; [1],0
same,Bedstraw plant response rating,"bedstraw; Rate 250 g/ha, scale 0 to 10, 0 no effect, 10 complete control",0
same,"Plant response rating, Bedstraw",bedstraw; [1],0
same,"Plant response rating, Bedstraw","bedstraw; Rate 125 g/ha, scale 0 to 10 (0 no effect, 10 complete control)",0
same,"Plant response rating, Bedstraw","bedstraw; Rate 250 g/ha, scale of 0 to 10 where 0 is no effect and 10 is complete control",0
same,Bedstraw plant response rating,"bedstraw; Rate 125 g/ha, scale 0 to 10, 0 no effect, 10 complete control",0
same,Bedstraw plant response rating,"bedstraw; Rate 500 g/ha, 0 to 10 scale (0 no effect, 10 complete control)",6
same,Blackgrass plant response rating,blackgrass; [2],0
same,Blackgrass plant response rating,blackgrass; [3],0
same,"Plant response rating, Blackgrass",blackgrass; [4],0
same,"Plant response rating, Blackgrass",blackgrass; [5],0
same,"Plant response rating, Blackgrass",blackgrass; [6],0
same,Blackgrass plant response rating,blackgrass; [7],0
same,Blackgrass plant response rating,blackgrass; [8],0
same,Blackgrass plant response rating,blackgrass; [9],0
same,B. signalgrass plant response rating,surinam grass; [2],0
same,B. signalgrass plant response rating,surinam grass; [3],0
same,"Plant response rating, B. signalgrass",surinam grass; [4],0
same,"Plant response rating, B. signalgrass",surinam grass; [5],0
same,"Plant response rating, B. signalgrass",surinam grass; [6],0
same,B. signalgrass plant response rating,surinam grass; [7],0
same,B. signalgrass plant response rating,surinam grass; [8],0
same,B. signalgrass plant response rating,surinam grass; [9],0
same,Cocklebur plant response rating,cocklebur; [2],0
same,Cocklebur plant response rating,cocklebur; [3],5
same,"Plant response rating, Cocklebur",cocklebur; [4],0
same,"Plant response rating, Cocklebur",cocklebur; [5],0
same,"Plant response rating, Cocklebur",cocklebur; [6],0
same,Cocklebur plant response rating,cocklebur; [7],0
same,Cocklebur plant response rating,cocklebur; [8],0
same,Cocklebur plant response rating,cocklebur; [9],7
same,Corn plant response rating,corn; [2],0
same,Corn plant response rating,corn; [3],0
same,"Plant response rating, Corn",corn; [4],0
same,"Plant response rating, Corn",corn; [5],0
same,"Plant response rating, Corn",corn; [6],0
same,Corn plant response rating,corn; [7],0
same,Corn plant response rating,corn; [8],0
same,Corn plant response rating,corn; [9],3
same,Crabgrass plant response rating,crabgrass; [2],0
same,Crabgrass plant response rating,crabgrass; [3],0
same,"Plant response rating, Crabgrass",crabgrass; [4],4
same,"Plant response rating, Crabgrass",crabgrass; [5],7
same,"Plant response rating, Crabgrass",crabgrass; [6],7
same,Crabgrass plant response rating,crabgrass; [7],7
same,Crabgrass plant response rating,crabgrass; [8],0
same,Crabgrass plant response rating,crabgrass; [9],2
same,Giant foxtail plant response rating,giant foxtail; [2],0
same,Giant foxtail plant response rating,giant foxtail; [3],0
same,"Plant response rating, Giant foxtail",giant foxtail; [4],8
same,"Plant response rating, Giant foxtail",giant foxtail; [5],8
same,"Plant response rating, Giant foxtail",giant foxtail; [6],8
same,Giant foxtail plant response rating,giant foxtail; [7],9
same,Giant foxtail plant response rating,giant foxtail; [8],0
same,Giant foxtail plant response rating,giant foxtail; [9],2
same,Morningglory plant response rating,morningglory; [2],2
same,Morningglory plant response rating,morningglory; [3],2
same,"Plant response rating, Morningglory",morningglory; [4],0
same,"Plant response rating, Morningglory",morningglory; [5],0
same,"Plant response rating, Morningglory",morningglory; [6],2
same,Morningglory plant response rating,morningglory; [7],2
same,Morningglory plant response rating,morningglory; [8],2
same,Morningglory plant response rating,morningglory; [9],8
same,Redroot pigweed plant response rating,pigweed; [2],0
same,Redroot pigweed plant response rating,pigweed; [3],0
same,"Plant response rating, Redroot pigweed",pigweed; [4],6
same,"Plant response rating, Redroot pigweed",pigweed; [5],6
same,"Plant response rating, Redroot pigweed",pigweed; [6],6
same,Redroot pigweed plant response rating,pigweed; [7],8
same,Redroot pigweed plant response rating,pigweed; [8],0
same,Redroot pigweed plant response rating,pigweed; [9],0
same,Soybean plant response rating,soybean; [2],2
same,Soybean plant response rating,soybean; [3],2
same,"Plant response rating, Soybean",soybean; [4],0
same,"Plant response rating, Soybean",soybean; [5],0
same,"Plant response rating, Soybean",soybean; [6],0
same,Soybean plant response rating,soybean; [7],0
same,Soybean plant response rating,soybean; [8],2
same,Velvetleaf plant response rating,velvetleaf; [2],0
same,Velvetleaf plant response rating,velvetleaf; [3],0
same,"Plant response rating, Velvetleaf",velvetleaf; [4],0
same,"Plant response rating, Velvetleaf",velvetleaf; [5],0
same,"Plant response rating, Velvetleaf",velvetleaf; [6],0
same,Velvetleaf plant response rating,velvetleaf; [7],0
same,Velvetleaf plant response rating,velvetleaf; [8],0
same,Wheat plant response rating,wheat; [2],0
same,Wheat plant response rating,wheat; [3],0
same,"Plant response rating, Wheat",wheat; [4],0
same,"Plant response rating, Wheat",wheat; [5],0
same,"Plant response rating, Wheat",wheat; [6],0
same,Wheat plant response rating,wheat; [7],0
same,Wheat plant response rating,wheat; [8],0
same,Wild oats plant response rating,wild oat; [2],0
same,Wild oats plant response rating,wild oat; [3],0
same,"Plant response rating, Wild oats",wild oat; [5],0
same,"Plant response rating, Wild oats",wild oat; [6],0
same,Wild oats plant response rating,wild oat; [7],0
same,Wild oats plant response rating,wild oat; [8],0
same,Rice plant response rating,rice; [2],0
same,Rice plant response rating,rice; [10],0
same,Rice plant response rating,rice; [11],0
same,Rice plant response rating,rice; [12],0
same,S. Flatsedge plant response rating,smallflower flatsedge; [2],0
same,S. Flatsedge plant response rating,smallflower flatsedge; [10],0
same,S. Flatsedge plant response rating,smallflower flatsedge; [12],0
same,Barnyardgrass plant response rating,bamyardgrass; [2],0
same,Barnyardgrass plant response rating,bamyardgrass; [10],0
same,Barnyardgrass plant response rating,bamyardgrass; [11],0
same,Barnyardgrass plant response rating,bamyardgrass; [12],0
